Test results published in patent publication US20240360361A1, “PIPERAZINE BIS-UREA AND BIS-THIOUREA-BASED CORROSION INHIBITOR COMPOUNDS FOR STEEL PROTECTION” (QATAR UNIVERSITY, priority 2023, published 2024).
“And” between values parts separate entries of the source, which are not always exact repeats. Identical values can stand only once.

Key:
[1] = Tafel extrapolation of C-steel in 5M HCl, three-electrode cell
Protocol: (§1) Corrosion inhibition efficiency (IE % or r %) is a measure of the efficiency of an inhibitor to effectively decrease a corrosion rate. Corrosion inhibition efficiency may be measured with the Tafel extrapolation of potentiodynamic polarization (PDP).
(§2) Electrochemical experiments were carried out using the three-electrode cell assembly (FIG. 4). Tafel and AC impedance measurements were obtained to elucidate the corrosion mechanisms and understand the interactions at the solution-surface interface. The effect of adding 10 to 200 ppm Inhibitor 2 on the C-steel corrosion in 5M HCl solution was determined by AC impedance and Tafel curves (FIG. 5 and FIG. 6).
(§3) Furthermore, electrochemical parameters describing the kinetics of the corrosion process were acquired following the Tafel extrapolation method to fit the curves of FIG. 6. […] Inhibitor 2 successfully achieved 95% efficiency in the highly corrosive condition of 5M HCl at a tolerable quantity of only 200 ppm concentration.

[2] = AC impedance of carbon steel in 1M HCl; conditions: 200 ppm inhibitor
Text: (§4) To investigate the effect of Inhibitor 1 on corrosion mechanisms, electrochemical measurements were obtained using Tafel and A.C. impedance experiments. FIGS. 1 and 2 show Tafel and AC impedance curves of carbon steel after adding 50 to 200 ppm of Inhibitor 1 to 1M HCl solution.
(§5) The Tafel extrapolation method was used to fit the curves and obtain corrosion parameters. […] The lowest reported current density at 200 ppm concentration was 4.5 μA·cm^−2, […] than 155 μA·cm^−2 recorded for blank 1M HCl. […] The charge transfer resistance reached the maximum of 1430 Ω·cm^2 at 200 ppm and Inhibitor 1 yielded around 93% efficiency after enhancing it from 116 Ω·cm^2 for the blank solution. Inhibitor 1 is a highly efficient corrosion inhibitor even at low concentrations; at concentrations of 50 ppm and 75 ppm, it yielded an 82% and 90% efficiency, respectively.

[3] = Tafel extrapolation (potentiodynamic polarization) of carbon steel in 1M HCl
Text: as §1, §4, §5

[4] = AC impedance of C-steel in 5M HCl, three-electrode cell; design: unit not given here; conditions: 200 ppm inhibitor
Protocol: as §2, §3

O=C(NCCCN1CCN(CCCNC(=O)Nc2ccc([N+](=O)[O-])cc2)CC1)Nc1ccc([N+](=O)[O-])cc1 [Inhibitor 1]
Corrosion rate ([1]; 10 ppm inhibitor): 360 mils · year^−1
Current density ([1]; 10 ppm inhibitor): 787 μA · cm^−2
Inhibition Efficiency % ([1]; 10 ppm inhibitor): 57%
Corrosion rate ([1]; 50 ppm inhibitor): 196 mils · year^−1
Current density ([1]; 50 ppm inhibitor): 429 μA · cm^−2
Inhibition Efficiency % ([1]; 50 ppm inhibitor): 77%
Corrosion rate ([1]; 100 ppm inhibitor): 96 mils · year^−1
Current density ([1]; 100 ppm inhibitor): 209 μA · cm^−2
Inhibition Efficiency % ([1]; 100 ppm inhibitor): 89%
Corrosion rate ([1]; 200 ppm inhibitor): 46 mils · year^−1
Current density ([1]; 200 ppm inhibitor): 100 μA · cm^−2
Inhibition Efficiency % ([1]; 200 ppm inhibitor): 95%
Reduction of current density versus 5M HCl blank ([1]; 200 ppm inhibitor): about 18.5 fold
Charge transfer resistance [2]: 1430 Ω·cm^2
Efficiency from charge transfer resistance (AC impedance) [2]: around 93%
% Inhibition Efficiency ([3]; 50 ppm inhibitor): 82%
Corrosion rate ([3]; 50 ppm inhibitor): 13 mils · year^−1
Current density ([3]; 50 ppm inhibitor): 29 μA · cm^−2
% Inhibition Efficiency ([3]; 75 ppm inhibitor): 90%
Corrosion rate ([3]; 75 ppm inhibitor): 6.8 mils · year^−1
Current density ([3]; 75 ppm inhibitor): 15 μA · cm^−2
% Inhibition Efficiency ([3]; 100 ppm inhibitor): 92%
Corrosion rate ([3]; 100 ppm inhibitor): 5.5 mils · year^−1
Current density ([3]; 100 ppm inhibitor): 12 μA · cm^−2
% Inhibition Efficiency ([3]; 200 ppm inhibitor): 97%
Corrosion rate ([3]; 200 ppm inhibitor): 2 mils · year^−1 and 2.0 mils · year^−1
Current density ([3]; 200 ppm inhibitor): 4.5 μA · cm^−2

O=[N+]([O-])c1ccc(NC(=S)NCCCN2CCN(CCCNC(=S)Nc3ccc([N+](=O)[O-])cc3)CC2)cc1 [Inhibitor 2]
Corrosion rate ([1]; 200 ppm inhibitor): 46 mils · year^−1
Inhibition Efficiency % ([1]; 200 ppm inhibitor): 95%
Charge transfer resistance (RCT) [4]: 83.4
